Several values for one entry are separate records, joined by “and”; a condition that tells them apart may be missing. Equal values may be shown once. Entries after “also recorded” stand apart in the source; their conditions may differ.
Columns and labels:
Assay type in all cases: in vitro ADME
[1] = target: T1, CYP2A6 (Homo sapiens, UniProt P11509); assay: Inhibition of CYP2A6 (coumarin 7-hydroxylation) by CK in HLMs
T1 construct: tissue Cypex Ltd. (U.K.); host or cells: pooled human liver microsomes
T1 sequence (P11509 1-494): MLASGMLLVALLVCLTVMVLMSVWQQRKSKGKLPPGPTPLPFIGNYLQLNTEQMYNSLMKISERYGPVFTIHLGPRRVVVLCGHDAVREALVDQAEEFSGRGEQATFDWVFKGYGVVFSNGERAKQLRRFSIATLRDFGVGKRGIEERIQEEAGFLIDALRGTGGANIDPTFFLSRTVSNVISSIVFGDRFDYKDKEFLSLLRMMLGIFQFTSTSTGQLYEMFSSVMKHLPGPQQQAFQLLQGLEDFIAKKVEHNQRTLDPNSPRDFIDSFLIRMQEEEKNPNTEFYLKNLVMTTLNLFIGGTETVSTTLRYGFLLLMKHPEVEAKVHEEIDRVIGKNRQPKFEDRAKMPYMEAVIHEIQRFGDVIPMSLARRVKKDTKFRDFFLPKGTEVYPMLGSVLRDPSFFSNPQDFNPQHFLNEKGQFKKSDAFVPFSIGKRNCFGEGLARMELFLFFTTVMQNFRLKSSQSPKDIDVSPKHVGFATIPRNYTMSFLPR
Protocol: (§1) The method was conducted according to our previous study with some modifications. The CYP isoform-specific probe reactions used were phenacetin O-deethylation (for CYP1A2), coumarin 7-hydroxylation (for CYP2A6), tolbutamide 4-hydroxylation (for CYP2C9), metoprolol α-hydroxylation (for CYP2D6), chlorzoxazone 6-hydroxylation (for CYP2E1),S-Mephenytoin 4-hydroxylation (for CYP2C19), and midazolam 1-hydroxylation (for CYP3A4). The kinetic study of CK was conducted with HLMs. A 0.2 mL incubation mixture that consisted of CK (as a substrate), the HLMs (0.5 mg/mL) or CYP isoforms (10 pmol), and 0.1 M sodium phosphate buffer (pH 7.4) was pre-warmed for 5 min at 37°C. The reaction was initiated by the addition of 1 mg/mL triphosphopyridine nucleotide (NADPH). All the reagents were dissolved in methanol, and the final solvent concentration in all incubations (including the controls) was 1%. The final incubations were performed in a shaking water bath (37°C) for 30 min. The reactions were stopped by adding 0.2 mL ice-cold acetonitrile, which contains irbesartan (114.9 ng/mL) as the internal standard. The samples were vortexed for 5 min. After centrifugation (12000×g for 10 min), the supernatants were transferred, and aliquots of 20 μL were injected into the HPLC-MS/MS system for analysis.
(§2) CK (10–100 μM) and a single CYP isoform-specific substrate (with a concentration similar to its corresponding Kmvalue) were used to determine the inhibitory effect of CK on specific CYP isoforms as described in detail previously. Substrates including phenacetin, coumarin, tolbutamide, metoprolol, chlorzoxazone, S-Mephenytoin, and midazolam were used at concentrations of 10, 5, 100, 7.5, 40, 100, and 5 μM, respectively. All incubation conditions were the same as mentioned above. The inhibitory effects on the CYP isoforms were investigated individually by incubating the HLMs in the absence or presence of CK. […]

[2] = target: CYP3A4 (Homo sapiens, UniProt P08684); assay: Inhibition of CYP3A4 (midazolam 1-hydroxylation) by CK in HLMs; set-up: tissue Cypex Ltd. (U.K.); host or cells: pooled human liver microsomes
Protocol: as §1
CK (10–100 μM) and a single CYP isoform-specific substrate (with a concentration similar to its corresponding Kmvalue) were used to determine the inhibitory effect of CK on specific CYP isoforms as described in detail previously. Substrates including phenacetin, coumarin, tolbutamide, metoprolol, chlorzoxazone, S-Mephenytoin, and midazolam were used at concentrations of 10, 5, 100, 7.5, 40, 100, and 5 μM, respectively. All incubation conditions were the same as mentioned above. The inhibitory effects on the CYP isoforms were investigated individually by incubating the HLMs in the absence or presence of CK. The incubation solution with the solvent that was used to dissolve CK was regarded as the negative control, and the solutions containing the specific inhibitors mentioned above were considered the positive controls.
The inhibition data obtained from the pilot experiments were used as a guide to generate the appropriate probe substrate and test inhibitor concentrations for the determination of the Ki values for each CYP isoform. The isoform-specific probe substrate concentrations used were 25–200 μM tolbutamide for CYP2C9 and 5–50 μM midazolam for CYP3A4. The CK concentrations used were 10–100 μM.
When Ki>Ki’, the intersection was above the [I] axis in the plot of S/V against [I] and below it in the Dixon plot; the opposite was true if Ki<Ki’. In the special case where Ki = Ki’ (simple non-competitive inhibition), the intersections occurred on the [I] axis in both plots. The asymptotic cases of competitive and uncompetitive inhibition can be generated by inserting the conditions Ki’ to ∞ for competitive inhibition, or Ki to ∞ for uncompetitive inhibition.
As described in detail previously, to determine the major enzymes responsible for the CK metabolism in HLMs, the metabolic clearance rate of the incubation solution without any specific inhibitor for CK was considered as 100%. The effects of the specific inhibitors on the metabolic clearance rate of CK were evaluated with SPSS one-way analysis of variance (SPSS Inc., Chicago, IL, USA). P<0.05 was considered significant in all cases. The apparent kinetic parameters of CK (Km and Vmax) were determined by fitting the Michaelis–Menten equation using the GraphPad Prism Enzyme Kinetic 5 Demo software (GraphPad Co. Ltd, San Diego, CA, USA).

[3] = target: T2, CYP2E1 (Homo sapiens, UniProt P05181); assay: Inhibition of CYP2E1 (chlorzoxazone 6-hydroxylation) by CK in HLMs
T2 construct: tissue Cypex Ltd. (U.K.); host or cells: pooled human liver microsomes
Protocol: as §1, §2

[4] = classified by IC50 according to Kong et al
[5] = CYP3A4 in HLMs, ketoconazole values ref 17

CYP3A4, sequence (P08684 whole entry): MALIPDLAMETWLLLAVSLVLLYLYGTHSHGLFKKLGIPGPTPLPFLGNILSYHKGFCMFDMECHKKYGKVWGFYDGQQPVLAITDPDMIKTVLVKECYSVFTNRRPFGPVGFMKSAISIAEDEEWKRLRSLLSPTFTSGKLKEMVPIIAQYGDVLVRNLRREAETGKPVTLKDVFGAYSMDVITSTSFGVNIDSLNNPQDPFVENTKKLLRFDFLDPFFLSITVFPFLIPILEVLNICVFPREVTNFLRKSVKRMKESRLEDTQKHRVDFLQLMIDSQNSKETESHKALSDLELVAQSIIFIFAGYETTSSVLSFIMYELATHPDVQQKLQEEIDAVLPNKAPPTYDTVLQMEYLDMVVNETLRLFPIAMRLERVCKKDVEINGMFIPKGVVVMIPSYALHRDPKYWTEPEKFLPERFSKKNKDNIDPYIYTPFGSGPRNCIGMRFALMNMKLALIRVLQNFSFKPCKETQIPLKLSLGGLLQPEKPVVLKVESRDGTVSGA
T2 sequence (P05181 whole entry): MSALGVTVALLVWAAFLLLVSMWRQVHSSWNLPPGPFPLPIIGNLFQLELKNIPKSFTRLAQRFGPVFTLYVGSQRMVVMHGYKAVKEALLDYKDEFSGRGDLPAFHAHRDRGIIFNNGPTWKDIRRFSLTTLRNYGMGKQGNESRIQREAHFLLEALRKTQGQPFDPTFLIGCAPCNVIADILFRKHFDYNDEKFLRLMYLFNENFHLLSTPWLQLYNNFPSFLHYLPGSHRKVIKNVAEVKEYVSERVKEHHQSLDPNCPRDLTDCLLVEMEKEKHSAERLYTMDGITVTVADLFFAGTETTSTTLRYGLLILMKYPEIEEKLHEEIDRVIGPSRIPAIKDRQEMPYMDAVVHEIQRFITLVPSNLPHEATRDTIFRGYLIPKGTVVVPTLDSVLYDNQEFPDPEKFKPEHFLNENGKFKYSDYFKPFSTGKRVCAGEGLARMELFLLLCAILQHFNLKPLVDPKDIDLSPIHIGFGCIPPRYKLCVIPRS

CC(C)=CCC[C@](C)(OC1O[C@H](CO)[C@@H](O)[C@H](O)[C@H]1O)[C@H]1CC[C@]2(C)[C@@H]1[C@H](O)C[C@@H]1[C@@]3(C)CC[C@H](O)C(C)(C)[C@@H]3CC[C@]12C (stereo partly drawn) [CK, 20-O-β-(D-glucopyranosyl)-20(S)-protopanaxadiol]
inhibitory effect on the activity of CYP2A6 ([1]; HLMs, CK 10–100 μM): minimal; also recorded: negligible
IC50 ([1]; HLMs, coumarin 5 μM, CK 10–100 μM): > 100 µM
inhibitor potency class for CYP2A6 [1, 4]: weak (weak, if IC50≥100 μg/mL or ≥50 μM)
IC50 of CK higher than that of ketoconazole [2, 5]: 41-123 fold
Ki of CK higher than that of ketoconazole [2, 5]: 761 fold
type of inhibition of CYP3A4 ([2]; HLMs, Dixon and S/V versus [I] plots): noncompetitive
IC50 ([2]; HLMs, midazolam 1-hydroxylation, midazolam 5 μM, CK 10–100 μM): 9.83 µM and 9.82 µM
Ki ([2]; HLMs, midazolam 5–50 μM, secondary plot of Lineweaver–Burk slopes): 11.4 µM
inhibitor potency class for CYP3A4 [2, 4]: potent (potent, if IC50≤ 20 μg/mL or ≤10 μM)
inhibitory effect on the activity of CYP2E1 ([3]; HLMs, CK 10–100 μM): minimal; also recorded: negligible
IC50 ([3]; HLMs, chlorzoxazone 40 μM, CK 10–100 μM): > 100 µM
inhibitor potency class for CYP2E1 [3, 4]: weak (weak, if IC50≥100 μg/mL or ≥50 μM)
